Reference: patent US20160237106A1 (priority 2015, published 2016)

Assays:
[1] = in vitro; details: African green monkey
[2] = tested on: Ebola virus; test: microbe, parasite or virus in culture; assay type: cell-based; details: Zaire ebolavirus, Vero C1008

Compound | CC50 [1] [µM] | EC50 [2] [µM]
[N-]=[N+]=N[C@]1(CO)O[C@@H](n2cnc3c(=O)[nH]c(N)nc32)[C@H](F)[C@@H]1O [Compound I-47, 4′-Azido-2′-deoxy-2′-fluoroguanosine] | > 50 | < 20
[N-]=[N+]=N[C@]1(CO)O[C@@H](n2ccc(N)nc2=O)[C@H](F)[C@@H]1O [Compound I-17, 4′-Azido-2′-deoxy-2′-fluorocytidine] | > 50 | < 20
[N-]=[N+]=N[C@]1(CO)O[C@@H](n2cnc3c(=O)[nH]c(N)nc32)[C@H](O)[C@@H]1O [Compound I-48, 4′-Azidoguanosine] | > 50 | < 50
C[C@H](NP(=O)(OC[C@@]1(N=[N+]=[N-])O[C@@H](n2ccc(=O)[nH]c2=O)[C@H](O)[C@@H]1O)Oc1cccc2ccccc12)C(=O)OCc1ccccc1 (stereo partly drawn) [Compound I-6, 4′-Azidouridine-5′-(O-1-naphthyl-N-(S)-1-(benzyloxycarbonyl)ethyl phosphoramidate] | > 50 | < 20
